From PubChem BioAssay (NCI)
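A five-concentration, 48-hour dose response in 96-well plates underlies each endpoint, interpolated linearly between surrounding concentrations. Here, GI50 denotes the concentration required for 50% inhibition of growth. Definition used: TGI = concentration required for complete inhibition of growth.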

What was measured:
Assay in all cases: NCI anticancer screen, dose series, 48 h
786-0 renal = tested on: 786-0 renal
A498 renal = tested on: A498 renal
A549 NSCLC = tested on: A549 NSCLC
ACHN renal = tested on: ACHN renal
BT-549 breast = tested on: BT-549 breast
CAKI-1 renal = tested on: CAKI-1 renal
CCRF-CEM leukemia = tested on: CCRF-CEM leukemia
COLO 205 colon = tested on: COLO 205 colon
DU-145 prostate = tested on: DU-145 prostate
EKVX NSCLC = tested on: EKVX NSCLC
HCC-2998 colon = tested on: HCC-2998 colon
HCT-116 colon = tested on: HCT-116 colon
HCT-15 colon = tested on: HCT-15 colon
HL-60(TB) leukemia = tested on: HL-60(TB) leukemia
HOP-62 NSCLC = tested on: HOP-62 NSCLC
HOP-92 NSCLC = tested on: HOP-92 NSCLC
HS 578T breast = tested on: HS 578T breast
HT29 colon = tested on: HT29 colon
IGROV1 ovarian = tested on: IGROV1 ovarian
K-562 leukemia = tested on: K-562 leukemia
KM12 colon = tested on: KM12 colon
LOX IMVI melanoma = tested on: LOX IMVI melanoma
M14 melanoma = tested on: M14 melanoma
MALME-3M melanoma = tested on: MALME-3M melanoma
MCF7 breast = tested on: MCF7 breast
MDA-MB-231 breast = tested on: MDA-MB-231 breast
MDA-MB-435 = tested on: MDA-MB-435
MOLT-4 leukemia = tested on: MOLT-4 leukemia
NCI-H226 lung = tested on: NCI-H226 lung
NCI-H23 lung = tested on: NCI-H23 lung
NCI-H460 lung = tested on: NCI-H460 lung
NCI-H522 lung = tested on: NCI-H522 lung
NCI/ADR-RES ovarian = tested on: NCI/ADR-RES ovarian
OVCAR-3 ovarian = tested on: OVCAR-3 ovarian
OVCAR-4 ovarian = tested on: OVCAR-4 ovarian
OVCAR-5 ovarian = tested on: OVCAR-5 ovarian
OVCAR-8 ovarian = tested on: OVCAR-8 ovarian
PC-3 prostate = tested on: PC-3 prostate
RPMI-8226 leukemia = tested on: RPMI-8226 leukemia
RXF 393 renal = tested on: RXF 393 renal
SF-268 CNS = tested on: SF-268 CNS
SF-295 CNS = tested on: SF-295 CNS
SF-539 CNS = tested on: SF-539 CNS
SK-MEL-2 melanoma = tested on: SK-MEL-2 melanoma
SK-MEL-28 melanoma = tested on: SK-MEL-28 melanoma
SK-MEL-5 melanoma = tested on: SK-MEL-5 melanoma
SK-OV-3 ovarian = tested on: SK-OV-3 ovarian
SN12C renal = tested on: SN12C renal
SNB-19 CNS = tested on: SNB-19 CNS
SNB-75 CNS = tested on: SNB-75 CNS
SR leukemia = tested on: SR leukemia
SW-620 colon = tested on: SW-620 colon
T-47D breast = tested on: T-47D breast
TK-10 renal = tested on: TK-10 renal
U251 CNS = tested on: U251 CNS
UACC-257 melanoma = tested on: UACC-257 melanoma
UACC-62 melanoma = tested on: UACC-62 melanoma
UO-31 renal = tested on: UO-31 renal

SMILES: CC(C)=CCC[C@@H](C)c1c2[nH]c3ccccc3sc-2c(C)c(=O)c1=O
- TGI (786-0 renal): 24.1 µM
- TGI (A498 renal): 35.5 µM
- TGI (A549 NSCLC): 35.6 µM
- TGI (ACHN renal): 10.8 µM
- TGI (BT-549 breast): > 75 µM
- TGI (CAKI-1 renal): 35.2 µM
- TGI (CCRF-CEM leukemia): > 42.4 µM
- TGI (COLO 205 colon): > 66.7 µM
- TGI (DU-145 prostate): > 75 µM
- TGI (EKVX NSCLC): > 75 µM
- TGI (HCC-2998 colon): > 36.8 µM
- TGI (HCT-116 colon): 21.8 µM
- TGI (HCT-15 colon): > 75 µM
- TGI (HL-60(TB) leukemia): 5.02 µM
- TGI (HOP-62 NSCLC): 24.9 µM
- TGI (HOP-92 NSCLC): > 75 µM
- TGI (HS 578T breast): > 48.9 µM
- TGI (HT29 colon): > 27.4 µM
- TGI (IGROV1 ovarian): 26.3 µM
- TGI (K-562 leukemia): > 75 µM
- TGI (KM12 colon): > 35.2 µM
- TGI (LOX IMVI melanoma): > 29 µM
- TGI (M14 melanoma): 48.5 µM
- TGI (MALME-3M melanoma): > 29.1 µM
- TGI (MCF7 breast): > 75 µM
- TGI (MDA-MB-231 breast): > 75 µM
- TGI (MDA-MB-435): > 75 µM
- TGI (MOLT-4 leukemia): > 75 µM
- TGI (NCI-H226 lung): 11.1 µM
- TGI (NCI-H23 lung): 41.9 µM
- TGI (NCI-H460 lung): > 27 µM
- TGI (NCI-H522 lung): 8.6 µM
- TGI (NCI/ADR-RES ovarian): 12.1 µM
- TGI (OVCAR-3 ovarian): > 45.1 µM
- TGI (OVCAR-4 ovarian): > 75 µM
- TGI (OVCAR-5 ovarian): > 75 µM
- TGI (OVCAR-8 ovarian): 13.8 µM
- TGI (PC-3 prostate): > 75 µM
- TGI (RPMI-8226 leukemia): 25 µM
- TGI (RXF 393 renal): 32.7 µM
- TGI (SF-268 CNS): > 35.3 µM
- TGI (SF-295 CNS): 40.6 µM
- TGI (SF-539 CNS): 16.3 µM
- TGI (SK-MEL-2 melanoma): 30.7 µM
- TGI (SK-MEL-28 melanoma): > 75 µM
- TGI (SK-MEL-5 melanoma): 19.7 µM
- TGI (SK-OV-3 ovarian): > 75 µM
- TGI (SN12C renal): 67.2 µM
- TGI (SNB-19 CNS): > 75 µM
- TGI (SNB-75 CNS): > 43.3 µM
- TGI (SR leukemia): > 61.6 µM
- TGI (SW-620 colon): > 75 µM
- TGI (T-47D breast): 23.1 µM
- TGI (TK-10 renal): > 75 µM
- TGI (U251 CNS): > 75 µM
- TGI (UACC-257 melanoma): > 75 µM
- TGI (UACC-62 melanoma): 68.6 µM
- TGI (UO-31 renal): 14.4 µM

SMILES: CN(C)C/C=C/C(=O)Nc1ccc(C(=O)N2CCC[C@@H](Nc3ncc(Cl)c(-c4c[nH]c5ccccc45)n3)C2)cc1
- GI50 (786-0 renal): 1.96 µM
- TGI (786-0 renal): 8.38 µM
- GI50 (A498 renal): 0.192 µM
- TGI (A498 renal): 0.495 µM
- GI50 (A549 NSCLC): 0.581 µM
- TGI (A549 NSCLC): 11 µM
- GI50 (ACHN renal): 3.41 µM
- TGI (ACHN renal): 12.7 µM
- GI50 (BT-549 breast): 0.267 µM
- TGI (BT-549 breast): 1.22 µM
- GI50 (CAKI-1 renal): 1.65 µM
- TGI (CAKI-1 renal): 12.1 µM
- GI50 (CCRF-CEM leukemia): 0.0438 µM
- TGI (CCRF-CEM leukemia): 15.8 µM
- GI50 (COLO 205 colon): 0.0338 µM
- TGI (COLO 205 colon): 0.122 µM
- GI50 (DU-145 prostate): 0.215 µM
- TGI (DU-145 prostate): 11.1 µM
- GI50 (EKVX NSCLC): 0.827 µM
- TGI (EKVX NSCLC): 7.5 µM
- GI50 (HCC-2998 colon): 0.107 µM
- TGI (HCC-2998 colon): 1.2 µM
- GI50 (HCT-116 colon): 0.154 µM
- TGI (HCT-116 colon): 10.6 µM
- GI50 (HCT-15 colon): 8.65 µM
- TGI (HCT-15 colon): 23.2 µM
- GI50 (HL-60(TB) leukemia): 0.0353 µM
- TGI (HL-60(TB) leukemia): 0.173 µM
- GI50 (HOP-62 NSCLC): 0.432 µM
- TGI (HOP-62 NSCLC): 5.74 µM
- GI50 (HOP-92 NSCLC): 0.244 µM
- TGI (HOP-92 NSCLC): 1.54 µM
- GI50 (HS 578T breast): 0.214 µM
- TGI (HS 578T breast): 1.45 µM
- GI50 (HT29 colon): 0.285 µM
- TGI (HT29 colon): 4.2 µM
- GI50 (IGROV1 ovarian): 0.149 µM
- TGI (IGROV1 ovarian): 11.3 µM
- GI50 (K-562 leukemia): 0.0863 µM
- TGI (K-562 leukemia): > 100 µM
- GI50 (KM12 colon): 0.371 µM
- TGI (KM12 colon): 12.1 µM
- GI50 (LOX IMVI melanoma): 0.0558 µM
- TGI (LOX IMVI melanoma): 1.28 µM
- GI50 (M14 melanoma): 0.359 µM
- TGI (M14 melanoma): 2.16 µM
- GI50 (MALME-3M melanoma): 0.0372 µM
- TGI (MALME-3M melanoma): 0.315 µM
- GI50 (MCF7 breast): 0.0427 µM
- TGI (MCF7 breast): 7.16 µM
- GI50 (MDA-MB-231 breast): 0.138 µM
- TGI (MDA-MB-231 breast): 6.71 µM
- GI50 (MDA-MB-435): 0.0832 µM
- TGI (MDA-MB-435): 1.23 µM
- GI50 (MOLT-4 leukemia): 0.182 µM
- TGI (MOLT-4 leukemia): 3.55 µM
- GI50 (NCI-H226 lung): 0.365 µM
- TGI (NCI-H226 lung): 3.2 µM
- GI50 (NCI-H23 lung): 0.189 µM
- TGI (NCI-H23 lung): 0.783 µM
- GI50 (NCI-H460 lung): 0.498 µM
- TGI (NCI-H460 lung): 5.62 µM
- GI50 (NCI-H522 lung): 0.0344 µM
- TGI (NCI-H522 lung): 0.228 µM
- GI50 (NCI/ADR-RES ovarian): 32.8 µM
- TGI (NCI/ADR-RES ovarian): > 100 µM
- GI50 (OVCAR-3 ovarian): 0.0644 µM
- TGI (OVCAR-3 ovarian): 0.99 µM
- GI50 (OVCAR-4 ovarian): 0.0664 µM
- TGI (OVCAR-4 ovarian): 9.74 µM
- GI50 (OVCAR-5 ovarian): 0.328 µM
- TGI (OVCAR-5 ovarian): 11.6 µM
- GI50 (OVCAR-8 ovarian): 0.406 µM
- TGI (OVCAR-8 ovarian): 11.8 µM
- GI50 (PC-3 prostate): 0.308 µM
- TGI (PC-3 prostate): 3.48 µM
- GI50 (RPMI-8226 leukemia): 0.422 µM
- TGI (RPMI-8226 leukemia): 3.83 µM
- GI50 (RXF 393 renal): 0.115 µM
- TGI (RXF 393 renal): 0.561 µM
- GI50 (SF-268 CNS): 0.125 µM
- TGI (SF-268 CNS): 1.78 µM
- GI50 (SF-295 CNS): 0.685 µM
- TGI (SF-295 CNS): 4.01 µM
- GI50 (SF-539 CNS): 0.176 µM
- TGI (SF-539 CNS): 0.65 µM
- GI50 (SK-MEL-2 melanoma): 0.115 µM
- TGI (SK-MEL-2 melanoma): 0.392 µM
- GI50 (SK-MEL-28 melanoma): 0.121 µM
- TGI (SK-MEL-28 melanoma): 0.942 µM
- GI50 (SK-MEL-5 melanoma): 0.231 µM
- TGI (SK-MEL-5 melanoma): 0.618 µM
- GI50 (SK-OV-3 ovarian): 0.395 µM
- TGI (SK-OV-3 ovarian): 12.4 µM
- GI50 (SN12C renal): 0.21 µM
- TGI (SN12C renal): 9.29 µM
- GI50 (SNB-19 CNS): 0.196 µM
- TGI (SNB-19 CNS): 11.1 µM
- GI50 (SNB-75 CNS): 0.0978 µM
- TGI (SNB-75 CNS): 0.444 µM
- GI50 (SR leukemia): 0.0337 µM
- TGI (SR leukemia): 1.03 µM
- GI50 (SW-620 colon): 0.191 µM
- TGI (SW-620 colon): 5.74 µM
- GI50 (T-47D breast): 0.0427 µM
- TGI (T-47D breast): 4.27 µM
- GI50 (TK-10 renal): 2.31 µM
- TGI (TK-10 renal): 12.9 µM
- GI50 (U251 CNS): 0.306 µM
- TGI (U251 CNS): 10 µM
- GI50 (UACC-257 melanoma): 0.234 µM
- TGI (UACC-257 melanoma): 1.32 µM
- GI50 (UACC-62 melanoma): 0.173 µM
- TGI (UACC-62 melanoma): 0.445 µM
- GI50 (UO-31 renal): 9.84 µM
- TGI (UO-31 renal): 23 µM
